This passage reports EC50 results from patent US20160318987A1 (MEDIMMUNE LIMITED, priority 2013, published 2016).

Where a SMILES comes first, the peptide text is derived from it. [ ]: non-standard residue; d: D form. αMeF = C[C@](N)(Cc1ccccc1)C(=O)O; Aib = CC(C)(N)C(=O)O

In one experiment the target is T1, hGIP-R (Homo sapiens, UniProt P48546).
T1 construct: expressed in transfected cells
T1 sequence (P48546 22-466): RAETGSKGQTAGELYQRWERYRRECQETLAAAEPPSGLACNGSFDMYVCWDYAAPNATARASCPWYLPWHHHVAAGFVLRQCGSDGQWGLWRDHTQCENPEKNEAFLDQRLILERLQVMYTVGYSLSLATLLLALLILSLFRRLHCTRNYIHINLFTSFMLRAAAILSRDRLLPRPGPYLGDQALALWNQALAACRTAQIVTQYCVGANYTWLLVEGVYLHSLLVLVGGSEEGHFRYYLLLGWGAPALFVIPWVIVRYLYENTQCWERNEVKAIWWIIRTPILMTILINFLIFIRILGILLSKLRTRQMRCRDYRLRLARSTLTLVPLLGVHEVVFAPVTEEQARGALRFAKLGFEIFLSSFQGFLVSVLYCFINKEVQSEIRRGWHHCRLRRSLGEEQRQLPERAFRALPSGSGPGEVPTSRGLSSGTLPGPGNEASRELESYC
Put plainly: cAMP functional assay, cells expressing human GIP receptor (primary assay). The experiment is classed as cell-based. To be noted: n = 2. As to the method:
(§1) The biological activities/receptor potencies of the synthetic GLP-1 peptides described herein are suitably tested for biological activity, e.g., stimulation of one or more cellular receptor responses. Stable cell lines expressing human, mouse, rat, or dog GLP-1 receptor (GLP-1R), glucagon receptor (GCGR) or glucose-dependent insulinotropic peptide (gastric inhibitory polypeptide) receptor (GIPR) are generated in HEK293 cells or CHO cells by standard methods.
(§2) cAMP assays were performed using “assay buffer”: Assay Buffer: 0.1% BSA (Sigma #A3059) in HBSS (Sigma #H8264) with 25 mM HEPES, pH 7.4 and containing 0.5 mM IBMX (Sigma #17018).
(§3) Low protein binding 384-well plates (Greiner #781280) are used to perform eleven 1 in 5 serial dilutions of test samples which are made in assay buffer. All sample dilutions are made in duplicate.
(§4) A frozen cryo-vial of cells expressing the receptor of interest is thawed rapidly in a water-bath, transferred to pre-warmed assay buffer and spun at 240× g for 5 minutes. Cells are re-suspended in assay buffer at a batch-dependent optimized concentration (e.g. hGCGR cells at 2×10^5 cells/ml, hGLP-1R and hGIPR cells at 1×10^5 cells /ml).
(§5) From the dilution plate, a 5 μL replica is stamped onto a black shallow-well u-bottom 384-well plate (Corning #3676). To this, 5 μL cell suspension is added and the plates incubated at room temperature for 30 minutes.
(§6) cAMP levels are measured using a commercially available cAMP dynamic 2 HTRF kit (Cisbio, Cat #62AM4PEJ), following the two step protocol as per manufacturer's recommendations. In brief; anti-cAMP cryptate (donor fluorophore) and cAMP-d2 (acceptor fluorophore) are made up separately by diluting each 1/20 in conjugate & lysis buffer provided in the kit. 5 μL anti-cAMP cryptate is added to all wells of the assay plate, and 5 μL cAMP-d2 is added to all wells except non-specific binding (NSB) wells, to which conjugate and lysis buffer are added. Plates are incubated at room temperature for one hour and then read on an Envision (Perkin Elmer) using excitation wavelength of 320 nm and emission wavelengths of 620 nm & 665 nm. EC50 values of the synthetic peptides determined in cAMP assays are then determined.

A further experiment addresses T2, hGLP-1R (Homo sapiens, UniProt P43220).
T2 construct: expressed in transfected cells
The experiment is described as follows: cAMP functional assay, cells expressing human GLP-1 receptor (primary assay). Type of experiment: cell-based. To be noted: n = 2. As to the method:
as §1, §2, §3, §4, §5, §6

T2 sequence (P43220 24-463): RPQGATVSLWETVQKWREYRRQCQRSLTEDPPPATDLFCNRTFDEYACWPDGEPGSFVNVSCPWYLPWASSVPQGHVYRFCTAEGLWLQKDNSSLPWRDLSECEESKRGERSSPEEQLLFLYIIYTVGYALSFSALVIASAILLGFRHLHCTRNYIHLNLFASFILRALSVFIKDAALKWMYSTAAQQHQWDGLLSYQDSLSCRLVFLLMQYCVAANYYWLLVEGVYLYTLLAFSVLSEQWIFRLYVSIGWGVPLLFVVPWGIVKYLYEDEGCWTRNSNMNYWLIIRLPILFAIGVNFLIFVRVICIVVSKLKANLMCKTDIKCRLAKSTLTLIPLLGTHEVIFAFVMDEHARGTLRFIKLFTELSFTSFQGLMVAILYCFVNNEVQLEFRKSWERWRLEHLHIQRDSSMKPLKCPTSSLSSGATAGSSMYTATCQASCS

As for `CC[C@H](C)[C@H](NC(=O)[C@](C)(Cc1ccccc1)NC(=O)[C@H](CCC(=O)O)NC(=O)[C@H](CCCCN)NC(=O)[C@H](C)NC(=O)[C@H](C)NC(=O)[C@H](CCC(N)=O)NC(=O)CNC(=O)[C@H](CCC(=O)O)NC(=O)[C@H](CC(C)C)NC(=O)[C@](C)(Cc1ccccc1)NC(=O)[C@H](CO)NC(=O)[C@H](CO)NC(=O)[C@@H](NC(=O)[C@H](CC(=O)O)NC(=O)[C@H](CO)NC(=O)[C@@H](NC(=O)[C@](C)(Cc1ccccc1)NC(=O)[C@H](CO)NC(=O)CNC(=O)[C@H](CCC(=O)O)NC(=O)C(C)(C)NC(=O)[C@@H](N)Cc1c[nH]cn1)[C@@H](C)O)C(C)C)C(=O)N[C@@H](C)C(=O)N[C@@](C)(Cc1ccccc1)C(=O)N[C@@H](CC(C)C)C(=O)N[C@H](C(=O)N[C@@H](CCCCN)C(=O)NC(C)(C)C(=O)N[C@@H](CCCNC(=N)N)C(N)=O)C(C)C` [SEQ ID NO: 42, H-(Aib)^2-EG-(S)^5-(α-MeF)^6-TSDV^10 SS-(α-MeF)^13-LE^15 GQAAK^20 E-(α-MeF)^22-IA-(α-MeF)^25 LVK-(Aib)^29-R^30] (H-H[Aib]EGS[αMeF]TSDVSS[αMeF]LEGQAAKE[αMeF]IA[αMeF]LVK[Aib]R-NH2), the EC50 – broadly, the concentration needed to bring the measured effect to its halfway point – was found to be 102 nM at hGIP-R and 0.0234 nM on hGLP-1R.
Turning to `CC[C@H](C)[C@H](NC(=O)[C@H](Cc1ccccc1)NC(=O)[C@H](CCC(=O)O)NC(=O)[C@H](CCCCN)NC(=O)[C@H](C)NC(=O)[C@H](C)NC(=O)[C@H](CCC(N)=O)NC(=O)CNC(=O)[C@H](CCC(=O)O)NC(=O)[C@H](CC(C)C)NC(=O)[C@](C)(Cc1ccccc1)NC(=O)[C@H](CO)NC(=O)[C@H](CO)NC(=O)[C@@H](NC(=O)[C@H](CC(=O)O)NC(=O)[C@H](CO)NC(=O)[C@@H](NC(=O)[C@](C)(Cc1ccccc1)NC(=O)[C@@H](NC(=O)CNC(=O)[C@H](CCC(=O)O)NC(=O)C(C)(C)NC(=O)[C@@H](N)Cc1c[nH]cn1)[C@@H](C)O)[C@@H](C)O)C(C)C)C(=O)N[C@@H](C)C(=O)N[C@@](C)(Cc1ccccc1)C(=O)N[C@@H](CC(C)C)C(=O)N[C@H](C(=O)N[C@@H](CCCCN)C(=O)NCC(=O)N[C@@H](CCCNC(=N)N)C(N)=O)C(C)C` [SEQ ID NO: 30, H-(Aib)^2-EGT^5-(α-MeF)^6-TSDV^10 SS-(α-MeF)^13-LE^15 GQAAK^20 EF^22-IA-(α-MeF)^25 LVKGR^30] (H-H[Aib]EGT[αMeF]TSDVSS[αMeF]LEGQAAKEFIA[αMeF]LVKGR-NH2), the EC50 was 98.9 nM at hGIP-R and 0.0117 nM at hGLP-1R.
For `CC[C@H](C)[C@H](NC(=O)C(C)(C)NC(=O)[C@H](CCC(=O)O)NC(=O)[C@H](CCCCN)NC(=O)[C@H](C)NC(=O)[C@H](C)NC(=O)[C@H](CCC(N)=O)NC(=O)CNC(=O)[C@H](CCC(=O)O)NC(=O)[C@H](CC(C)C)NC(=O)C(C)(C)NC(=O)[C@H](CO)NC(=O)[C@H](CO)NC(=O)[C@@H](NC(=O)[C@H](CC(=O)O)NC(=O)[C@H](CO)NC(=O)[C@@H](NC(=O)C(C)(C)NC(=O)[C@@H](NC(=O)CNC(=O)[C@H](CCC(=O)O)NC(=O)C(C)(C)NC(=O)[C@@H](N)Cc1c[nH]cn1)[C@@H](C)O)[C@@H](C)O)C(C)C)C(=O)N[C@@H](C)C(=O)NC(C)(C)C(=O)N[C@@H](CC(C)C)C(=O)N[C@H](C(=O)N[C@@H](CCCCN)C(=O)NCC(=O)N[C@@H](CCCNC(=N)N)C(N)=O)C(C)C` [SEQ ID NO: 16, H-(Aib)^2-EGT^5-(Aib)^6-TSDV^10 SS-(Aib)^13-LE^15 GQAAK^20 E-(Aib)^22-IA-(Aib)^25 LVKGR^30] (H-H[Aib]EGT[Aib]TSDVSS[Aib]LEGQAAKE[Aib]IA[Aib]LVKGR-NH2) the same measures were 102 nM and 102 nM.
For `CC[C@H](C)[C@H](NC(=O)[C@H](Cc1ccccc1)NC(=O)[C@H](CCC(=O)O)NC(=O)[C@H](CCCCN)NC(=O)[C@H](C)NC(=O)[C@H](C)NC(=O)[C@H](CCC(N)=O)NC(=O)CNC(=O)[C@H](CCC(=O)O)NC(=O)[C@H](CC(C)C)NC(=O)[C@H](Cc1ccc(O)cc1)NC(=O)[C@H](CO)NC(=O)[C@H](CO)NC(=O)[C@@H](NC(=O)[C@H](CC(=O)O)NC(=O)[C@H](CO)NC(=O)[C@@H](NC(=O)[C@H](Cc1ccccc1)NC(=O)[C@H](CO)NC(=O)CNC(=O)[C@H](CCC(=O)O)NC(=O)C(C)(C)NC(=O)[C@@H](N)Cc1c[nH]cn1)[C@@H](C)O)C(C)C)C(=O)N[C@@H](C)C(=O)N[C@@H](Cc1c[nH]c2ccccc12)C(=O)N[C@@H](CC(C)C)C(=O)N[C@H](C(=O)N[C@@H](CCCCN)C(=O)NCC(=O)N[C@@H](CCCNC(=N)N)C(N)=O)C(C)C` [SEQ ID NO: 28, H-(Aib)^2-EG-(S)^5-FTSDV^10 SSYLE^15 GQAAK^20 EFIAW^25 LVKGR^30], in that order: 102 nM and 0.00951 nM.
In the case of `CC[C@H](C)[C@H](NC(=O)[C@](C)(Cc1ccccc1)NC(=O)[C@H](CCC(=O)O)NC(=O)[C@H](CCCCN)NC(=O)[C@H](C)NC(=O)[C@H](C)NC(=O)[C@H](CCC(N)=O)NC(=O)CNC(=O)[C@H](CCC(=O)O)NC(=O)[C@H](CC(C)C)NC(=O)[C@](C)(Cc1ccccc1)NC(=O)[C@H](CO)NC(=O)[C@H](CO)NC(=O)[C@@H](NC(=O)[C@H](CC(=O)O)NC(=O)[C@H](CO)NC(=O)[C@@H](NC(=O)[C@](C)(Cc1ccccc1)NC(=O)[C@H](CO)NC(=O)CNC(=O)[C@H](CCC(=O)O)NC(=O)C(C)(C)NC(=O)[C@@H](N)Cc1c[nH]cn1)[C@@H](C)O)C(C)C)C(=O)N[C@@H](C)C(=O)N[C@@](C)(Cc1ccccc1)C(=O)N[C@@H](CC(C)C)C(=O)N[C@H](C(=O)N[C@@H](CCCCN)C(=O)NCC(=O)NCC(N)=O)C(C)C` [SEQ ID NO: 39, H-(Aib)^2-EG-(S)^5-(α-MeF)^6-TSDV^10 SS-(α-MeF)^13-LE^15 GQAAK^20 E-(α-MeF)^22-IA-(α-MeF)^25 LVKG-(G)^30] (H-H[Aib]EGS[αMeF]TSDVSS[αMeF]LEGQAAKE[αMeF]IA[αMeF]LVKGG-NH2), the concentration giving a half-maximal response (EC50) worked out at 102 nM at hGIP-R and 0.0322 nM at hGLP-1R.
Take `CC[C@H](C)[C@H](NC(=O)[C@](C)(Cc1ccccc1)NC(=O)[C@H](CCC(=O)O)NC(=O)[C@H](CCCCN)NC(=O)[C@H](C)NC(=O)[C@H](C)NC(=O)[C@H](CCC(N)=O)NC(=O)CNC(=O)[C@H](CCC(=O)O)NC(=O)[C@H](CC(C)C)NC(=O)[C@](C)(Cc1ccccc1)NC(=O)[C@H](CO)NC(=O)[C@H](CO)NC(=O)[C@@H](NC(=O)[C@H](CC(=O)O)NC(=O)[C@H](CO)NC(=O)[C@@H](NC(=O)[C@](C)(Cc1ccccc1)NC(=O)[C@H](CO)NC(=O)CNC(=O)[C@H](CCC(=O)O)NC(=O)C(C)(C)NC(=O)[C@@H](N)Cc1c[nH]cn1)[C@@H](C)O)C(C)C)C(=O)N[C@@H](C)C(=O)N[C@@](C)(Cc1ccccc1)C(=O)N[C@@H](CC(C)C)C(=O)NC(C)(C)C(=O)N[C@@H](CCCCN)C(=O)NCC(=O)N[C@@H](CCCNC(=N)N)C(N)=O` [SEQ ID NO: 40, H-(Aib)^2-EG-(S)^5-(α-MeF)^6-TSDV^10 SS-(α-MeF)^13-LE^15 GQAAK^20 E-(α-MeF)^22-IA-(α-MeF)^25 L-(Aib)27-KGR^30] (H-H[Aib]EGS[αMeF]TSDVSS[αMeF]LEGQAAKE[αMeF]IA[αMeF]L[Aib]KGR-NH2): the EC50 on hGIP-R stood at 102 nM; on hGLP-1R, 0.254 nM.
